Source: patent publication US10934527B2, “Generation of lineage-restricted progenitor cells from differentiated cells” (The Regents of the University of California, priority 2011, dated 2021)
“Also recorded” adds a separate entry of the source.

Assays:
YFP+ myotubes = assay: De-differentiation assay of lineage-marked YFP+ primary myotubes; format: cell-based, mice
Procedure: WT myoblasts or Tet-Oct4 (3×10^5) myoblasts upon 4-6 hour infection with 300 MOI of Ad-Cre virus were washed with growth medium twice to get rid of any residual virus and incubated for another 24 hours in growth medium at 37° C. in 5% CO2 incubator. These myoblasts were then lifted off from the plates by addition of 1×PBS, counted (3×10^4 cells/well) and co-cultured with 7×10^4 Lox-YFP myoblasts (obtained from B6.129X1-Gt(ROSA)26Sor^tm1(EYFP)Cos/J mice strain) per well in differentiation inducing medium DMEM (Cellgro)+2% horse serum+1% Penicillin/Streptomycin on 12 well (BD Falcon) on ECM (1:500) coated 12 well plates. […] The inhibitors were then withdrawn and cells were switched to growth medium containing bFGF (9 ng/ml). The treated cells were fed fresh growth medium and bFGF everyday over a period of time and the morphology of YFP expressing myotubes was routinely visualized by epifluorescence microscope using YFP filter and photographed using 10× and 20× objectives. For live Hoechst staining, 4 μM of Hoechst was added everyday to YFP labeled myotube cultures, incubated for 10 minutes at 37° C. in 5% CO2 incubator, washed off to remove unlabeled Hoechst and photographed.
The labeled YFP^+ myotubes per well in 4 day old Cre-Lox myotube cultures were determined to be ˜2600. After inhibitor treatment, ˜350 YFP^+ mononucleated cells were found in culture. […] Another method was based on the determination of Lox YFP myonuclei in labeled myotubes. […] Therefore, reprogramming efficiency calculated was the percent of YFP^+ mononucleated cells out of an estimated total number of Lox YFP myonuclei in YFP^+ myotubes and was determined ˜5.04% [(350/6940)×100] (see FIG. 11D).

primary myotubes = assay: Apoptosis / cell death in treated primary myotubes; format: cell-based, mice
[1] = 96 hour old YFP+ myotubes treated daily for 2 days in DM (10 μM), then switched to GM

O.O.O.OO.OO.[K+].[OH-].[V].c1cnc2c(c1)ccc1cccnc12 [BpV, potassium bisperoxo(1,10-phenanthroline)oxovanadate]
de-differentiation frequency / reprogramming efficiency, method 1: percent of YFP+ mononucleated cells out of the total number of labeled YFP+ myotubes (YFP+ myotubes; [1]): ~1.18% | reprogramming efficiency, method 2: percent of YFP+ mononucleated cells out of estimated total number of Lox YFP myonuclei in YFP+ myotubes (YFP+ myotubes; [1]): ~0.4% | cell death / apoptosis of myotubes (primary myotubes; myotubes treated with BpV alone): cell death occurred; also recorded: did show apoptosis

COc1cccc2c1C(=O)c1c(O)c3c(c(O)c1C2=O)C[C@@](O)(C(=O)CO)C[C@@H]3O[C@H]1C[C@H](N)[C@H](O)[C@H](C)O1 [doxorubicin]
appearance of YFP+ mononucleated cells from Cre-Lox myotubes (YFP+ myotubes; 0.2 uM for 48 hours, alone or in combination with the apoptosis inhibitor, then growth media 72-96 hours): no YFP^+ mononucleated cells were observed

N-(2-Quinolyl)valyl-aspartyl-(2,6-difluorophenoxy)methyl ketone [Q-VD]
appearance of YFP+ mononucleated cells from YFP+ myotubes (YFP+ myotubes; treated in DM, then switched to GM): no YFP^+ mononucleated cells were observed | apoptosis by doxorubicin in Cre-Lox myotube cultures (primary myotubes; with 0.2 uM doxorubicin for 48 hours): reduced apoptosis
